Measurements from patent US8338404B2, “Composition and method for reducing allergen” (Kyowa Hakko Bio Co., Ltd., priority 2007, dated 2012).

Biological target: T1, mite allergen Derf2 (Dermatophagoides farinae, UniProt Q00855)
T1 construct: mite allergen Derf2 contained in standard house dust; from tissue; host or cells: standard house dust (natural mite allergen, not recombinant)
T1 sequence (Q00855 18-146): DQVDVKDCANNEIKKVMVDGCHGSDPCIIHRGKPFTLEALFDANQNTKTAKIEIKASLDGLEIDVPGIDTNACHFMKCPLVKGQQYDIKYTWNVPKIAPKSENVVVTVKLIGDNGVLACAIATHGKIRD
Experiment: Effects of processed fiber for reducing mite allergen (sandwich ELISA)
Type: biochemical
Conditions: 5% treatment solution, 1 hour; for Mite allergen concentration: 1 ml mite allergen buffer
Experimental: At the outset, anti-Derf2 monoclonal antibody 15E11, which was diluted to 2 μg/ml in phosphate buffer (pH 7.4, containing 0.1% by weight of NaN3) was applied to the F16 Maxisorp Nunc-Immuno Module plate (NUNC) in amounts of 100 μl per well and subjected to sensitization at 4° C. for at least 1 day. After sensitization, the liquid was removed, a blocking reagent (1% by weight of bovine serum albumin and phosphate buffer (pH 7.2, containing 0.1% by weight of NaN3)) was added in amounts of 100 μl per well, and the reaction was allowed to proceed at 37° C. for 60 minutes. After the reaction, the plate was washed in phosphate buffer (pH 7.2, containing 0.1% by weight of polyoxyethylene (20) sorbitan monolaurate). Subsequently, the sample resulting from the reaction of mite allergens with the aforementioned solution was added dropwise thereto in amounts of 100 μl per well, and the reaction was allowed to proceed at 37° C. for 60 minutes.
After the reaction, the plate was washed in phosphate buffer (pH 7.2, containing 0.1% by weight of polyoxyethylene (20) sorbitan monolaurate). The peroxidase-labeled anti-Derf2 monoclonal antibody was dissolved to 200 μg/ml in distilled water, the resultant was diluted 1,000-fold with phosphate buffer (pH 7.2, containing 1% by weight of bovine serum albumin and 0.1% by weight of polyoxyethylene (20) sorbitan monolaurate), and the resulting solution was added in amounts of 100 μl per well. The reaction was allowed to proceed at 37° C. for 60 minutes, and the plate was first washed with phosphate buffer (pH 7.2, containing 0.1% by weight of polyoxyethylene (20) sorbitan monolaurate) and then with distilled water. Ortho-phenylenediamine dihydrochloride (26 mg tablet, Sigma Chemical Co.) and a hydrogen peroxide solution (13 μl) were added to 13 ml of 0.1 mol/l phosphate buffer (pH 6.2), the resultant was added in amounts of 100 μl per well, and the reaction was allowed to proceed at 37° C. for 5 minutes. Immediately thereafter, 50 μl each of 2 mol/l H2SO4 was introduced so as to terminate the reaction, and the absorbance (OD 490 nm) was assayed using a microplate spectrophotometer (Bio-Rad Laboratories Inc.)
The allergen-reducing fabric obtained in Example 8 was tested in terms of the effects of allergen reduction. As a control, a white cotton broadcloth and polyethylene terephthalate (PET) cloth were soaked via a padding method in an aqueous solution of 5% tannic acid (an equivalent of JP Patent Publication (kokai) No. 61-44821 A (1986)), the clothes were dried at 110° C. for 2 minutes, and the resultants were tested in terms of the effects of allergen reduction.
The clothes (5 cm×5 cm each) were introduced into reclosable plastic bags, 1 ml of phosphate buffer (pH 7.2) of mite allergen was added thereto, and the resultants were allowed to stand for 1 hour. The centrifuged samples were subjected to enzyme immunoassay (i.e., sandwich ELISA) in the same manner as in Test Example 1 to inspect the effects of reducing mite allergen Derf2.

[1] = PET cloth 5 cm×5 cm, not treated: 970 ng/ml
[2] = cotton broadcloth 5 cm×5 cm, not treated: 720 ng/ml

Structure (SMILES)	Mite allergen concentration [1]	Reduction (PET cloth 5 cm×5 cm)	Mite allergen concentration [2]	Reduction (cotton broadcloth 5 cm×5 cm)
CC(=O)N1C[C@H](O)C[C@H]1C(=O)O [N-acetyl-trans-4-hydroxy-L-proline]	2.3 ng/mL	99.8%	3.5 ng/mL	99.5%
O=C(OC[C@H]1O[C@@H](OC(=O)c2cc(O)c(O)c(OC(=O)c3cc(O)c(O)c(O)c3)c2)[C@H](OC(=O)c2cc(O)c(O)c(OC(=O)c3cc(O)c(O)c(O)c3)c2)[C@@H](OC(=O)c2cc(O)c(O)c(OC(=O)c3cc(O)c(O)c(O)c3)c2)[C@@H]1OC(=O)c1cc(O)c(O)c(OC(=O)c2cc(O)c(O)c(O)c2)c1)c1cc(O)c(O)c(OC(=O)c2cc(O)c(O)c(O)c2)c1 [tannic acid]	190 ng/mL	80%	120 ng/mL	83%
